Results taken from EP1551873B1, “AGONISTS AND ANTAGONISTS OF THE HUMAN ODORANT RECEPTOR OR17-4 AND USES THEREOF” (Symrise AG, priority 2002, dated 2004).

Tests used:
humane Spermien [1] = experiment: Sperm chemotaxis flat capillary assay (cell density in capillary); assay type: cell-based, human
Procedure: Gefrorene Samenproben von fünf gesunden Spendern wurden aus der California Cryobank (Los Angeles, CA, USA) erhalten und für Bioassays gemäß den World Health Organization-Richtlinien (World Health Organization: Laboratory for the examination of human serum and semen-cervical mucus interaction, Cambridge University Press (1993)) vorbereitet. Nachdem die Suspensionen auf 37 °C für 10 Minuten gebracht worden waren, wurde jede Probe in HEPES-gepufferter humaner Tubarflüssigkeit (HTF; Irvine Scientific, Santa Ana, CA, USA) überführt und auf 10^7 Zellen/ml eingestellt. Die Lösungen wurden dann bei 37 °C in einer 5 %-igen CO2-Atmosphäre aufbewahrt und innerhalb von 30 Minuten für Experimente verwendet (P. Quinn, Journal of Assisted Reproductive Genetics 12, 97-105 (1995)). Die Reaktionen von Sperma auf Bourgeonal wurde (a) durch computer-assisted video motion analysis (CAVMA) gemessen, um Veränderungen in der Schwimmgeschwindigkeit (Spermaaktivierung) zu detektieren, und (b) in einem flat capillary-Assay für die Chemotaxis in der Nähe einer Diffusionsmaterialquelle untersucht. Für jede Test-oder Kontroll-Behandlung wurden fünf wiederholte Experimente unter Verwendung von Sperma der fünf Spender durchgeführt. Die Daten der Bioassays wurden statistisch durch Ein-Weg-Varianzanalyse (ANOVA) unter Verwendung eines post-hoc Scheffe-Tests (R. W. Day and G. P. Quinn, Ecol. Monogr. 59, 433-463 (1989)) analysiert. Eine Bonferroni-Korrektur wurde zum Angleichen der α-Levels für multiple Vergleiche verwendet.
Zur Untersuchung der Spermien-Chemotaxis wurden Kammern mit vier getrennten Kompartimenten verwendet, wobei die Kapillar-Methode von Adler (J. Adler, Science 153, 708-716 (1966); J. Adler, Journal of General Microbiology 74, 77-91 (1973)) modifiziert wurde. Jedes Kompartiment bestand aus zwei durch einen Kanal verbundenen Vertiefungen. Die Spermienproben (10^6 Zellen/ml) wurden jeweils in den Vertiefungen vorgelegt. Ein flaches 6 µl-Mikrokapillarröhrchen (Drummond Scientific Co.), das entweder Test- oder Kontrolllösung enthielt, wurde in den Kanal eingeführt, wobei seine beiden Enden die frischen Spermien-Suspensionen innerhalb der zwei Vertiefungen berührten. Nach vier Stunden Inkubation bei 37 °C wurden die Inhalte jeder Kapillare in die Vertiefung eines Toxoplasmose-Objektträgers transferiert, hitzefixiert und mit 0,1 Acridin-Orange 1 Minute lang gefärbt. Zellzählungen wurden dann unter Verwendung eines Olympus-BH2-Mikroskopes, das für Phasenkontrast- und Epifluoreszenz-Applikationen ausgerüstet war (J. A. Riffell, P. J. Krug, R. K. Zimmer, Journal of Experimental Biology 205, 1439-1450 (2002); C. C. Gee and R. K. Zimmer-Faust, Journal of Experimental Biology 200, 3185-3192 (1997)), bei 67-facher Vergrößerung durchgeführt.
Zur Bestimmung der Chemoattraktion von Spermien und des Effekts eines Antagonisten wurde Bourgeonal allein bei 10^-7 M und in Kombination mit 10^-6, 10^-7, 10^-8 oder 10^-9 M n-Undecanal getestet. Während der Durchführung der Chemotaxis-Bioassays wurde das Spermienverhalten innerhalb eines Bereiches von 300 µm vor jeder Kapillarspitze 30 Sekunden lang auf Video aufgenommen. Die Videoaufnahme begann 10 bis 15 Minuten nach dem Experimentbeginn, um die Bildung eines chemischen Gradienten zu ermöglichen. Die Spermien-Orientierung zum Gradienten hin wurde unter Verwendung von CAVMA quantifiziert. […]

humane Spermien [2] = experiment: Ca2+ imaging of head and midpiece of single human spermatozoa; assay type: cell-based
Excerpt: Die Ca^2+-imaging-Experimente wurden auf dem Träger eines invertierten Zeiss-Mikroskopes durchgeführt, das für die ratiofluorometrische Bildgebung mit einer Xenon-Bogenlampe, einem Vielfach-Wellenlängen-Illuminations-System POLYCH-ROM II zur Anregung, einer gekühlten charge-coupled device (CCD)-Kamera und einer WinNT-basierten T.I.L.L.-Vision-Software zum Sammeln und raum- und zeitabhängigen Quantifizieren Ca^2+-abhängiger Fluoreszenz-Signale (F340/F380-Verhältnis) ausgestattet war. HEK293-Zellen wurden mit 32-facher, Spermazellen mit 63-facher Vergrößerung beobachtet.
HEK293- und Spermazellen wurden unter Verwendung eines speziellen Applikations-Systems, das es gestattete, vorübergehend alle Zellen im Blickfeld aus einem von sechs benutzergewählten Kapillarröhrchen zu überspülen, Geruchs- und/oder Wirkstoffen (Testlösungen) ausgesetzt. Der Wechsel zwischen den Testlösungen erfolgte nahezu sofort; auch trat im Wesentlichen keine Wirkungsverzögerung nach dem Wechsel auf, weil die Röhrchenspitzen zum optischen Feld eng benachbart waren. Zwischen den Applikationen von Testlösungen überspülte ein Pufferlösungsstrom kontinuierlich alle Zellen im Gefäß, um jedwede potentielle Hintergrund-Anreicherung von Testlösungen (Geruchs- bzw. Wirkstoffen) zu minimieren. Alle Lösungen wurden bei Raumtemperatur appliziert. Alle verwendeten Geruchsstoffe stammten von Dr. T. Gerke, Henkel KGaA, Düsseldorf, FRG, andere Wirkstoffe wurden von Sigma gekauft. Zur Zusammensetzung der Henkel 100-Mischung vergleiche C. H. Wetzel et al., Journal of Neuroscience 19, 7426-7433 (1999).
Die mögliche Rolle von hOR17-4 in einem Ca^2+-vermittelten physiologischen Prozess in humanen Spermatozoen (z.B. Acrosomreaktion, Kapazitationsprozess oder Änderungen zur hyperaktivierten Beweglichkeit) wurden durch Ca^2+-Imaging der Kopf- und der Mittelregion von einzelnen humanen Spermien untersucht. Dazu wurden frisch von jungen, gesunden Spendern erhaltene humane Spermien unverzüglich in 1,5-ml Plastikröhrchen transferiert. Nach 30 minütiger aufrechter Inkubation bei 37 °C wurden 75 µl beweglicher Spermien aus der oberen Schicht der Spermiensuspension auf Concanavalin A-beschichtete 35 mm Petrischalen transferiert und 45 Minuten lang bei Raumtemperatur in 1 ml Ladungspuffer (pH 7,4) mit 140 mM NaCl, 5 mM KCI, 2 mM CaCl2, 2 mM MgCl2, 10 mM Hepes, 10 mM Glucose, 5 µM Fura-2-AM (Molecular Probes), and 0,1 % Pluronic F-127 inkubiert. Danach wurde das Medium sanft durch Fura-2-AM-freie Pufferlösung ausgewechselt. Nicht an den Boden angeheftetes Sperma wurde durch diesen Schritt entfernt. Ca^2+-Bilder wurden von 8 bis 15 Spermatozoen in einem zufällig gewählten Sichtfeld aufgenommen. Die Fluoreszenzsignale eines Spermienkopfes und der Mittelregion wurden gemessen. […]

| EC50 (humane Spermien [1]; Homo sapiens, Sperm, 4 h, 37 °C, read-out: ED50 (Konzentration, die die halbmaximale Antwort hervorruft), Zelldichte) [nM] | Compound | Konzentration ohne weiteren Anstieg der Zelldichte (humane Spermien [1]) | Konzentrationen mit signifikanten Antworten im Verhältnis zur HTF-Kontrolle, Zelldichte (humane Spermien [1]; Scheffé test P ≤ 0,03) | vorübergehende Ca^2+-Antworten, Anteil aller getesteten Spermatozoen (humane Spermien [2]; 5 s application, 43 of 119 spermatozoa, 12 experiments) [%] | Schwellenwert (Konzentration für Ca^2+-Antwort) (humane Spermien [2]; about two orders of magnitude lower than for recombinant receptor) | Effizienz (Reihenfolge der Agonisten) in Spermien (humane Spermien [2]; direct comparison in the same sperm) | Effekt auf das Spermienverhalten, Zelldichte (humane Spermien [1]; 10^-7 M alone, P > 0,99) | Zelldichte als Antwort auf 10^-7 M Bourgeonal relativ zur HTF-Kontrolle (humane Spermien [1]; co-applied with 10^-6, 10^-7 or 10^-8 M n-Undecanal, P > 0,99) | Blockade der Ca^2+-Antworten auf Bourgeonal (humane Spermien [2]; co-application at same concentration as Bourgeonal, with or without pre-incubation, n = 10) |
| --- | --- | --- | --- | --- | --- | --- | --- | --- | --- |
| 30 | CC(C)(C)c1ccc(CCC=O)cc1 [Bourgeonal] | > 10^-6 M | ≥ 10^-8 M | 36 | ≥ 10^-8 M | potentesten getesteten Liganden | – | – | – |
| – | CCCCCCCCCCC=O [n-Undecanal] | – | – | – | – | – | keinen messbaren Effekt | nicht signifikant erhöht | blockierte vollständig |
